Reference: US8227604B2, “Hybrid 2-aminotetralin and aryl-substituted piperazine compounds and their use in altering CNS activity” (Wayne State University, priority 2001, dated 2012)

Assays:
D1 receptor = molecular target: T1, D1 receptor (Homo sapiens, UniProt P21728); experiment: Binding affinity at cloned human D1 receptor, [3H]SCH23390 (LHD1 cells)
T1 construct: expressed in transfected cells; host or cells: LHD1 cells
Protocol: LHD1 cells (human receptor) are grown and prepared as described for the HA7 cells as described hereafter. The final pellet is resuspended at 5 mg protein/80 ml in 50 mM Tris-HCl containing 120 mM of NaCl, 5 mM of KCl, 2 mM of CaCl2, and 1 mM of MgCl2, pH 7.4. To wells containing 100 μl of test drug or buffer and […] of [^3H]SCH 23390 (0.18 nM final conc.), is added 0.8 ml of cell homogenate (0.05 mg protein/well), and the plates are incubated at […] for 60 min. Nonspecific binding is determined with 1 μM of SCH 23390.

D4 receptor [1] = molecular target: T2, D4 receptor (Homo sapiens, UniProt P21917); experiment: Agonist potency by [3H]thymidine incorporation (mitogenesis), D4; format: cell-based; design: expressed in transfected cells; conditions: for EC50 / D4 % Maxm Stim: [3H]thymidine incorporation; for D4 % Maxm Stim: >80% full agonist
T2 sequence (P21917 1-419): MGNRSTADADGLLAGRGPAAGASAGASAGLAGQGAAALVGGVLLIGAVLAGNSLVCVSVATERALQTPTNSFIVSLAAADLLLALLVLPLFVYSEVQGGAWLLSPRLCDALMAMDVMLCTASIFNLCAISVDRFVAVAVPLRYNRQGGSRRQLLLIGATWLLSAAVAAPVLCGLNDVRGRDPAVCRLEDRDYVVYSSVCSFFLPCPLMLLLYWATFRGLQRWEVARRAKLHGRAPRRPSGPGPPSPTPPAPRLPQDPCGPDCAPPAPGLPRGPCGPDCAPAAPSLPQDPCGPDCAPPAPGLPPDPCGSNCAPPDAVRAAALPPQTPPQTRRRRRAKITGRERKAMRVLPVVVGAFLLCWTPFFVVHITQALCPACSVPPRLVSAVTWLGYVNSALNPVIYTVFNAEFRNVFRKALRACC
Protocol: Potential as domaminergenic agonists was assayed by ^3H-thymidine incorporation by standard techniques.
The mitogenesis study results presented in Table 7 assay the ability of these ligands to act as agonists or antagonists. The EC50 values thus indicate intrinsic activities or functional activities of these compounds. The value of % maximum stimulation indicates whether a compound is a partial agonist or full agonist. Generally, a value greater than 80% is considered as a full agonist and anything less than 80% is considered as a partial agonist. A compound will be considered antagonist if it produces a negative result (no [3H]thymidine incorporation) in the assay. All the compounds reported in Table 7 are either full agonists or partial agonists.

D4 receptor [2] = molecular target: T2, D4 receptor; experiment: Binding affinity at cloned human D4 receptor, [3H]YM-09151-2 (CHO D4.4 cells); design: expressed in transfected cells; host or cells: CHO D4.4 cells; conditions: for Ki: cloned human D4
Protocol: CHO D4.4 cells (human receptors) are grown to confluence in D4 Puromycin medium containing 2 μg/ml puromycin, 5% fetal calf serum and 5 supplemented calf serum and 0.5% pen-strep. The cells are harvested as described for D2 and D3 cells and used at a concentration of 0.15 mg protein/well in the [^3H]YM-09151-2 binding assay.

D3 receptor = D3 receptor (Homo sapiens, UniProt P35462); experiment: Inhibition constants for binding to cloned D3 receptor expressed in HEK cells, [3H]spiperone; conditions: D3 expressed in HEK cells
Protocol: Inhibition constants for binding to cloned D2L and D3 receptors expressed in HEK cells by displacing [^3H] spiperone were measured for several compounds.

T1 sequence (P21728 whole entry): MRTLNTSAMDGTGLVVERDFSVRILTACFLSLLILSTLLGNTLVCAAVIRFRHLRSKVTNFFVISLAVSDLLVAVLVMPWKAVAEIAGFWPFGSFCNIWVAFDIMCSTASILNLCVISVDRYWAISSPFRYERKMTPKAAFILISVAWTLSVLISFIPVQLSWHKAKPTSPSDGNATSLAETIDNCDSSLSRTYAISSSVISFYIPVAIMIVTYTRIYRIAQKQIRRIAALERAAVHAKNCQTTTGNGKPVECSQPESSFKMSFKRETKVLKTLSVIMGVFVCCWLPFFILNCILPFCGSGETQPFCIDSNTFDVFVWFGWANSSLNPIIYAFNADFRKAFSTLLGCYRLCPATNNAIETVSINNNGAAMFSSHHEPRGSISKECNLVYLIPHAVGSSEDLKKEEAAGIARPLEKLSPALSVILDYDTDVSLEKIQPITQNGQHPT
Sequence of D3 receptor (P35462 whole entry): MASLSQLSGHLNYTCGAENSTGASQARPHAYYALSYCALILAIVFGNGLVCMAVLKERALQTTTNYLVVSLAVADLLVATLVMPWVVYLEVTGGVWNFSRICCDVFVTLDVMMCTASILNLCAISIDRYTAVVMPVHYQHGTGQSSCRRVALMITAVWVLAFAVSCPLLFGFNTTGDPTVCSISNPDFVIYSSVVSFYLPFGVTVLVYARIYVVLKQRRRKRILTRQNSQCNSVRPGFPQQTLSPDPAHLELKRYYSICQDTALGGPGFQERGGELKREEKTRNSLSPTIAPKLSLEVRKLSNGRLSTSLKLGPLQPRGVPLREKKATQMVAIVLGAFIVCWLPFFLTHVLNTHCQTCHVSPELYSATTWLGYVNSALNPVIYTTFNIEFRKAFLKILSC

| Ki (D1 receptor) | EC50 (D4 receptor [1]) | Ki (D4 receptor [2]) | melting point | D4 % Maxm Stim (D4 receptor [1]) | Ki (D3 receptor) | agonist character at the D4 receptor (D4 receptor [1]; functional assay) | affinity at the D4 receptor (D4 receptor [2]) | Structure (SMILES) |
| --- | --- | --- | --- | --- | --- | --- | --- | --- |
| 3218 ± 7.77 nM | 54.8 ± 18.6 nM | 142 ± 6.5 nM |  |  |  |  |  | N#CCCCN(CCCCN1CCN(c2ccccc2)CC1)C1CCc2ccc(O)cc2C1 (stereo not shown) [Compound 8, 7-Hydroxy-2-[N-butyonitrile-(N-(4-phenylpiperazin-1-yl)-butyl)amino]tetralin] |
| 3730 ± 272 nM | 32.2 ± 2.51 nM | 137 ± 10.2 nM | 70 to 71 °C | 51.08 ± 1.72% |  |  |  | O=C(NCCCCN(CCCCN1CCN(c2ccccc2)CC1)C1CCc2ccc(O)cc2C1)c1ccccc1 (stereo not shown) [Compound 10a, 7-Hydroxyl-2-[N-(4-benzoylaminobutyl)-(N-(4-phenylpiperazin-1-yl)-butyl)amino]tetralin] |
| 2950 ± 238 nM | 26.7 ± 10.6 nM | 35.6 ± 1.42 nM |  | 71.36 ± 10.17% |  |  |  | O=C(NCCN(CCCCN1CCN(c2ccccc2)CC1)C1CCc2ccc(O)cc2C1)c1ccccc1 (stereo not shown) [Compound 10b, 7-Hydroxy-2-[N-(2-benzoylamino)ethyl-(N-(4-phenylpiperazin-1-yl)-butyl)amino]tetralin] |
| 6120 ± 933 nM | 22.5 ± 11 nM | 25.7 ± 25.7 nM |  | 102.81 ± 20.21% | 3.79 ± 0.4 nM | full agonists | good affinity | CCCN(CCCCN1CCN(c2ccccc2)CC1)C1CCc2ccc(O)cc2C1 (stereo not shown) [Compound 15b, 7-Hydroxyl-2-[N-propyl-(N-(4-phenylpiperazin-1-yl)-butyl)amino]tetralin] |
